Source: patent publication US4203986A, “M-Trifluoro-methylphenyl-piperazine” (Metabio-Joullie, priority 1977, dated 1980)
Read-outs that look alike come from different tables or passages of the source.

Columns and labels:
Acute toxicity in Mice = assay type: in vivo, mice (SWISS, EOPS, NMRI/Han, female); conditions: for LD50 at 360 h / MTD at 360 h: mouse, in vivo; for LD50 at 360 h: method of KARBER and BEHRENS; for MTD at 360 h: read-out: LD 0 (maximum dose tolerated)
Protocol: The compounds are administered in increasing doses (in arithmetic progression) to groups of five .female. SWISS, EOPS, NMRI/Han mice of the EVIC CEBA strain and having a mean weight of 22 g.
For intravenous administration the compounds are dissolved in distilled water, for oral administration they are suspended in 10% gum arabic solution (volume administered: 0.5 ml/22 g body weight).
The LD 50's are calculated according to the method of KARBER and BEHRENS (B.) (Arch. Exp. Path. Pharmakol. 1935, 177, 379-388).
For each administration method, there is indicated:
LD 0 or maximum dose tolerated.
LD 100 or minimum lethal dose.
The number of animals surviving in the different groups is definitively verified 15 days after administrating the compounds.

[1] = tested on: toxicity of amphetamine compounds; assay: Action on the toxicity of Amphetamine compounds in the mice; assay type: in vivo; conditions: per os
Protocol: (6) Action on the toxicity of Amphetamine compounds in the mice. (groups of 10 animals)
30 minutes after administration of the test compounds, amphetamine bitartrate is injected interperitioeally at a dose of 10 mg/kg (dose giving substantially 100% mortality) to mice in groups of 10 in boxes 12×18×13 cm. The number of animals surviving 24 hours after the amphetamine administration is noted.

[2] = Test on the cataleptic action in rats; assay type: in vivo; conditions: p.o., every 30 minutes for 6 hours
Protocol: (7) Test on the cataleptic action in rats (groups of 5 animals)
After administration p.o. of the test compounds, the degree of catalepsy is noted every 30 minutes for 6 hours by the test of crossing of the homolateral feet according to BOISSIER (J.R.) and SIMON (P.) (Therapy, 1963, 18, 1257-1277) and using the following notation:
0=animal which is not cataleptic
132 animal conserving position on one side only
2=animal conserving position on both sides

[3] = tested on: coughing induced by aqueous citric acid aerosol; assay: Antitussive action in the guinea pig (citric acid aerosol); assay type: in vivo
Description: The technique used is that of SIECKMANN (W.) (in "Notions techniques de Pharmacologie generale" by Michel COLOT, page 75, Masson, Edit, 1972).
The guinea pigs .female. of mean weight 400 g, unanaesthesised, are subjected to the tussigenic effect of aerosols of a 7.5% aqueous citric acid solution. The animals are placed one by one in a cylindrical chamber having at its two extremities two canals, one serving as entrance for the aerosol and the other as its exit.
On the exit tube there is a lateral connection to a MERCURY gas pressure differential gauge joined to an RACIA counter. An adjustable screw clamp placed on the exit tube downstream of the lateral canal permits regulation of the sensitivity of the system such that the normal respiration of the animal only registers very weakly and that displacement of air in the chamber provoked by coughing attack is recorded clearly in the form of vertical traces.
Each guinea pig is first submitted to a control test for 5 minutes. One hour later it receives the test compound. It is replaced in the chamber for 5 minutes, 1 hour after oral administration of the compound.
The number of coughing attacks before and after administration is counted and the percentage inhibition is calculated.

[4] = tested on: coughing by stimulation of the superior larynx nerve; assay: Antitussive action in the cat (stimulation of the superior larynx nerve); assay type: in vivo; conditions: 12 mg/kg i.v.
Protocol: The cats all thriving, male or female of weight between 1.5 and 2.5 kg (test on 10 cats) are anaesthesised by nembutal at a dose of 30 mg/kg interperitoneally.
A cannula having three branches is placed in the trachea. Two of the branches are connected to a device for registering intratracheal pressure (MERCURY gas pressure gauge connected to an RACIA polygraph) The third branch allows elimination of part of the respiratory volume.
A cannula is placed in the femoral vein for administration of the test substances.
The stimulation parameters are as follows: frequency: 5 cycles per sec, amplitude: 5 millisec, voltage: 4 to 6 volts, duration: 15 to 45 sec. (according to the sensitivity of the animal).
There are carried a minimum of 3 stimulations spaced by 5 minutes and provoking coughing attacks of the same severity. The compound is then administered intravenously. The stimulation is then carried out every 5 minutes. If the compound reduces or suppresses the coughing the stimulation is continued until the reappearance of coughing to approximately the same degree as the initial coughing.
The results are expressed as a percentage reduction in the number of coughs.

For O=C1CCCCC1CN1CCN(c2cccc(C(F)(F)F)c2)CC1 (centres unmarked) [LJ 1144], the “LD 100 (minimum lethal dose)” value (Acute toxicity in Mice; intravenous administration) was 75 mg/kg, the LD50 at 360 h (Acute toxicity in Mice; iv, intravenous administration) was 61 mg/kg and the MTD at 360 h (Acute toxicity in Mice; iv, intravenous administration) was 37.5 mg/kg. For the same molecule, the LD50 at 360 h (Acute toxicity in Mice; po, oral administration) was 1820 mg/kg, the MTD at 360 h (Acute toxicity in Mice; po, oral administration) was 1250 mg/kg and the “LD 100 (minimum lethal dose)” value (Acute toxicity in Mice; oral administration) was 2250 mg/kg. The “toxicity of amphetamine compounds (in words)” value [1] was “reduce the toxicity of amphetamine compounds”, the cataleptic effect [2] was “absence of cataleptic effect” and the inhibition in vivo at 182 mg/kg ([3]; Cavia porcellus, po, 1 h, 182 mg/kg p.o., read-out: Percentages of inhibition of coughing) was 75%. The “antitussive activity (in words)” value ([3]; oral) was “also active if not more active than codeine” and the “% maximum reduction in the number of coughs” value [4] was 85%.
